The text below walks through data of patent US9833466B2, “Treatment of leukemia with histone deacetylase inhibitors” (Acetylon Pharmaceuticals Inc., priority 2014, dated 2017).

“Also recorded” adds a separate entry of the source.

One test has as its system MV4-11 cells. Put plainly: MV4-11 tumor growth and survival in Ncr nu/nu mice. It counts as in vivo. The protocol: Ncr nu/nu mice implanted with MV4-11 cells were treated with vehicle, azacitidine (5 mg/kg IV q3d), or azacitidine (5 mg/kg IV q3d) plus Compound A (50 mg/kg IP 5/2/5/2/5/2/5) for up to 4 weeks. (A) Tumor volume was measured twice weekly and the mean tumor volume±SD is plotted. (B) Fold tumor volume change on day 19 relative to day 1 is plotted. (C) Survival curve was plotted.

In test [1] the test system is AML blast freshly derived from bone marrow of AML patients. Put plainly: Ex vivo proliferation of AML blast freshly derived from bone marrow. It counts as cell-based. Particulars: Homo sapiens; 5 bone marrow samples from AML patients; flow cytometry at 96 h; single agent; read-out: median IC50, live AML cells. The procedure:
(A-B), 5 bone marrow samples derived from AML patients were treated with increasing concentrations of azacitidine, Compound A and Compound J and live AML cells were quantified by flow cytometry at 96 h. IC50 values (A) and AUC values (B) were plotted. […] The relative potency of the three drugs are Compound J>azacitidine>Compound A, consistent with the result in FIG. 2. (C) 5 bone marrow samples derived from AML patients were treated with increasing doses of azacitidine with Compound J and live AML cells were quantified by flow cytometry at 96 h. The combination index (Comb IDX) were calculated and median Comb IDX values were plotted.

Another test deals with multiple myeloma. To be noted: preclinical models of multiple myeloma; cited from earlier work.
The next test deals with T1, HDAC6 (Homo sapiens, UniProt Q9UBN7).
T1 sequence (Q9UBN7 1-1215): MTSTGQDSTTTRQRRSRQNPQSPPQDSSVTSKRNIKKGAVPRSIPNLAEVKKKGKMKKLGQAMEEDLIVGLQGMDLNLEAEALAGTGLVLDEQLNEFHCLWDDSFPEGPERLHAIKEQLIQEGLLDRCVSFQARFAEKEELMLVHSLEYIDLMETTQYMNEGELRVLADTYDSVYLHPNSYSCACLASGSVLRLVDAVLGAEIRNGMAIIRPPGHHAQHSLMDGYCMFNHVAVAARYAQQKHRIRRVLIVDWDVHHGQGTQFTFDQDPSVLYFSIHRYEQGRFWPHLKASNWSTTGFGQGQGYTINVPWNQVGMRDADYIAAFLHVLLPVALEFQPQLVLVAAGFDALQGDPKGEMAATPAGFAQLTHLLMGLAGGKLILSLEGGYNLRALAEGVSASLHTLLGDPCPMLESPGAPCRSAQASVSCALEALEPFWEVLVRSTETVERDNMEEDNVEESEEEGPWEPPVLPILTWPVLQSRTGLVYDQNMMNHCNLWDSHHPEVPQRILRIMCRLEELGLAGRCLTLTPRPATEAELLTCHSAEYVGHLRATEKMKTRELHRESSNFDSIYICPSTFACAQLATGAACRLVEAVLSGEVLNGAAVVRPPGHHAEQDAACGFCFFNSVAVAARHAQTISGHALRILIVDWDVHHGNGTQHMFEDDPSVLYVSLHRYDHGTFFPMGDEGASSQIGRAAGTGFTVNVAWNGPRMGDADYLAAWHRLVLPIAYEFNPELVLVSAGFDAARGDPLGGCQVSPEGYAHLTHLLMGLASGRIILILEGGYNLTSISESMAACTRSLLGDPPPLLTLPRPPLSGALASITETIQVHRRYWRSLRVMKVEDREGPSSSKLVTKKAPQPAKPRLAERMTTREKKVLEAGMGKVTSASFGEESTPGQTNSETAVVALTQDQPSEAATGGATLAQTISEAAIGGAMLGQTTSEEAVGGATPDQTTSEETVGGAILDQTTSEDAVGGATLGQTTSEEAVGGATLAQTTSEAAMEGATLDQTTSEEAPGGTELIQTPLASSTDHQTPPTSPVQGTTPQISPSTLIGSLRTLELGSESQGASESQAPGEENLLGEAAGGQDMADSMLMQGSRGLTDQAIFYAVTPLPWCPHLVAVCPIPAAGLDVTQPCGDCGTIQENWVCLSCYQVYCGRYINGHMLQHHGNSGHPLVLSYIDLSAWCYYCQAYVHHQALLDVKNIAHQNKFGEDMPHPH
Kind of test: HDAC enzyme assays (selectivity for HDAC6). The format is biochemical. The protocol: Compounds for testing are diluted in DMSO to 50 fold the final concentration and a ten point three fold dilution series is made. The compounds are diluted in assay buffer (50 mM HEPES, pH 7.4, 100 mM Kill, 0.001% Tween-20, 0.05% BASE, 20 μM TEC) to 6 fold their final concentration. The HDAC enzymes (purchased from BPS Biosciences) are diluted to 1.5 fold their final concentration in assay buffer. The dipeptide substrate and trypsin at 0.05 μM final concentration are diluted in assay buffer at 6 fold their final concentration. The final enzyme concentrations to use in these assays are 3.3 ng/ml (HDAC1), 0.2 ng/ml (HDAC2), 0.08 ng/ml (HDAC3) and 2 ng/ml (HDAC6). The final substrate concentrations to use are 16 μM (HDAC1), 10 μM (HDAC2), 17 μM (HDAC3) and 14 μM (HDAC6). Five μ1 of compound and 20 μl of enzyme are added to wells of a black, opaque 384 well plate in duplicate. Enzyme and compound are incubated together at room temperature for 10 min. Five μ1 of substrate is added to each well, the plate is shaken for 60 seconds and placed into a Victor 2 microliter plate reader. The development of fluorescence is monitored for 60 min. and the linear rate of the reaction is calculated. The IC50 is determined using Graph Pad Prism by a four parameter curve fit.

In the next test the test system is HL-60 cells. Put plainly: HL-60 cell viability, combination with azacitidine (cell titer glo, CalcuSyn CI). The format is cell-based. To be noted: 72 hr, CI less than 1 = synergistic. The procedure:
HL-60 cells were treated with increasing doses of azacitidine with Compound E (FIG. 11A) or with Compound A (FIG. 11B) or with Compound H (FIG. 11C) or with Compound C (FIG. 11D), and cell viability was assessed at 72 hr by cell titer glo assay. The combination index (CI) and relative fraction affected (Fa) was determined at each dose level using CalcuSyn software. […] Significant enhancement of azacitidine activity is observed in combination with HDAC1/2 inhibition.

In a further test the test system is GATA2. Put plainly: GATA2 expression in MV4-11 AML cell line. It counts as cell-based. Particulars: 48 h and 72 h. The procedure:
FIG. 16. […] (A-B) MV4-11 cells were plated at 2×10^5 cells/ml at indicated doses for 48 h and 72 h. RNA was prepared and analyzed for GATA2 and GAPDH as internal control.

Setting [2] is: Compound A 50 mg/kg IP plus azacitidine 5 mg/kg IV q3d, vs azacitidine or vehicle alone.

As for `O=C(CCCCCCNC(=O)c1cnc(N(c2ccccc2)c2ccccc2)nc1)NO` [Compound A, 2-(diphenylamino)-N-(7-(hydroxyamino)-7-oxoheptyl)pyrimidine-5-carboxamide], in the test on MV4-11 cells (setting [2]), the survival entry is recorded as “further enhanced; also recorded: increased survival in vivo” and the tumor growth result is given as “further enhanced; also recorded: reduced tumor growth in vivo”. Further, the “fold tumor volume change” value with MV4-11 cells (Compound A plus azacitidine vs azacitidine or vehicle alone, day 19 relative to day 1) is “reduced the fold tumor volume change”. The IC50 in test [1] came to 7.2 µM. In the test with multiple myeloma, the “synergy with bortezomib and immunomodulatory agents” value is on record as “synergizes with bortezomib”.

Regarding `O=C(CCCCCCNC(=O)c1cnc(N(c2ccccc2)c2ccccc2Cl)nc1)NO` [Compound B, 2-((2-chlorophenyl)(phenyl)amino)-N-(7-(hydroxyamino)-7-oxoheptyl)pyrimidine-5-carboxamide], at HDAC6, the “selective for HDAC6” value is on record as “about 10 times”.

`Nc1ccc(-c2cccs2)cc1NC(=O)c1ccc2c(c1)cc(C1CC1)n2CCN1CCOCC1` [Compound E, N-(2-amino-5-(thiophen-2-yl)phenyl)-2-cyclopropyl-1-(2-morpholinoethyl)-1H-indole-5-carboxamide]: the “synergistic interaction with azacitidine on cell viability (CI)” value with HL-60 cells was “strongest synergistic interaction”. Besides, the GATA2 expression entry in the test with GATA2 (combination of azacitidine and Compound E) is on record as “further induced GATA2 expression; also recorded: synergistically induce GATA2 expression”. The GATA2 level entry with GATA2 (single agent at 1 uM) was “induced GATA2 level”.
